Source: BindingDB's records for patent US20240166639 (Leukos Biotech, 2024)

Experiments:
[1] = biological target: 5-hydroxytryptamine receptor 2A (Homo sapiens, UniProt P28223); assay: Competition Binding in Human 5-HT2A Receptor
Protocol: Serotonin 5-HT2A receptor competition binding experiments were carried out in a polypropilene 96-well plate. In each well was incubated 80 μg of membranes from CHO-5-HT2A cell line prepared in the laboratory (protein concentration=4337 μg/ml), 1 nM [3H]-Ketanserin (47.3 Ci/mmol, 1 mCi/ml, Perkin Elmer NET791250UC) and compounds studied and standard. Non-specific binding was determined in the presence of Methysergide 1 μM (Sigma M137). The reaction mixture (Vt: 250 μl/well) was incubated at 37° C. for 30 min, 200 μL was transfered to GF/B 96-well plate (Millipore, Madrid, Spain) pretreated with 0.5% of PEI and treated with binding buffer (Tris-HCl 50 mM, pH=7.4), after was filtered and washed six times with 250 μl wash buffer (Tris-HCl 50 mM, pH=6.6), before measuring in a microplate beta scintillation counter (Microbeta Trilux, PerkinElmer, Madrid, Spain).

[2] = biological target: 5-hydroxytryptamine receptor 1B (Homo sapiens, UniProt P28222); assay: Binding at Human Serotonin Receptors Competition Binding in Human 5-HT1B Receptor Assay
Chain of 5-hydroxytryptamine receptor 1B (P28222 whole entry): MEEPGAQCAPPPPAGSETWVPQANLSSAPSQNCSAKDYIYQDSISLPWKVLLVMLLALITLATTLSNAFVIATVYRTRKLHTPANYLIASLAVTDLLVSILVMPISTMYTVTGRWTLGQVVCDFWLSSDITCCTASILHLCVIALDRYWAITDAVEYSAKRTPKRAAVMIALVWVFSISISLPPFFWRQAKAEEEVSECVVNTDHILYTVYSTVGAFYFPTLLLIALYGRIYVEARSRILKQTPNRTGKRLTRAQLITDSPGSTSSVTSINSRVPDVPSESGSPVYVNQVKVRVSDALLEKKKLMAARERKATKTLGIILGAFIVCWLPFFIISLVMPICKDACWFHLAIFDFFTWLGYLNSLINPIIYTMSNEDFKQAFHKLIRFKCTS
Protocol: Serotonin 5-HT1B receptor competition binding experiments were carried out in a polypropylene 96-well plate. […] The reaction mixture (Vt: 250 μl/well) was incubated at 25° C. for 90 min, 200 μL was transfered to GF/C 96-well plate (Millipore, Madrid, Spain) pretreated with 0.5% of PEI and treated with binding buffer (Tris-HCl 50 mM, EDTA 1 mM, MgCl2 10 mM, pH=7.4), after was filtered and washed four times with 250 μl wash buffer (Tris-HCl 50 mM, pH=7.4), before measuring in a microplate beta scintillation counter (Microbeta Trilux, PerkinElmer, Madrid, Spain).

Chain of 5-hydroxytryptamine receptor 2A (P28223 whole entry): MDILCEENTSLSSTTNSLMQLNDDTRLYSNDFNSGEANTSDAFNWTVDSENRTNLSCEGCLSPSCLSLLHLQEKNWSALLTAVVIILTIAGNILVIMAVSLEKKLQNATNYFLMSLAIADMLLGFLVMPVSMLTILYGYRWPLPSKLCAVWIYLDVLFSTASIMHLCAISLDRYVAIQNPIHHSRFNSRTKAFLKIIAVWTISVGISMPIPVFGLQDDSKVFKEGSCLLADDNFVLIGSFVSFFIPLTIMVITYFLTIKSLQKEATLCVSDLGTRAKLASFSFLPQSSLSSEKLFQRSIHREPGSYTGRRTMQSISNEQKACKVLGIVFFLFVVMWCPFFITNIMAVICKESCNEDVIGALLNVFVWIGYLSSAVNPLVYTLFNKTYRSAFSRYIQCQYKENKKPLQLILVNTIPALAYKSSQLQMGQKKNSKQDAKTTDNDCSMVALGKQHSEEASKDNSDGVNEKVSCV

Ki [1]: 2500 nM | Ki [2]: 0.4 nM
SMILES: Cc1nc(-c2ccc(-c3ccc(C(=O)Nc4cc(OCCN(C)C)c(Br)cn4)cn3)c(C3CC3)c2)no1 [US20240166639, Example 39]
